Structures are written as SMILES.

The test system of the assay is JEKO-1. Description: cells. The arrangement: species or system cell viability; MTT cell viability assay, absorbance 570/650 nm; IC50 by linear interpolation of concentration-response curve. As to conditions: Homo sapiens, JeKo-1, 48 h; read-out: IC 50 values. The procedure:
Supplementary file pone.0015479.s006.doc: Table S2 A list of compounds tested in this study. JEKO-1 cells were treated with each of the listed compounds at concentrations ranging from 1.25 µM to […]. Cell viability was determined by the MTT assay and used to obtain concentration-response curve. IC50 was extracted by linear interpolation. Click here for additional data file. HeLa and 293T cells from ATCC were maintained according to the standard procedures. JEKO-1 cells were kept in RPMI, 10% FCS as previously described. NOXA and control stable knock-down JEKO-1 cells were described previously. PBMC from normal volunteers were obtained from the Department of Transfusion Medicine, NIH and PBMC from CLL patients were obtained under NIH protocol 97-C-0178 with informed consent. Transfection was done with lipofectamine 2000 (Invitrogen) for 293T accordingly to manufacture's instruction. Pulse chase and denaturing immunoprecipitation were carried out as described previously, [48]. Subcellular fractionation experiments were carried out as previously described. Briefly, HeLa cells were harvested and washed with phosphate-buffered saline. Cells were then treated on ice with the buffer PB (25 mM Hepes, pH 7.2, 115 mM potassium acetate, 5 mM sodium acetate, 2.5 mM magnesium acetate, 0.5 mM EGTA, and a protease inhibitor cocktail) that also contain 0.028% digitonin. Cells were centrifuged at 20,000×g for 10 min. The cytosolic supernatant fraction was removed and the nucleus and membrane pellet fraction was washed twice with the PB buffer. The pellet fraction was finally resuspended in the PB buffer. The fluorescence intensity in these fractions was measured by the Victor 3 plate reader using the Ex482 and Em523 filter set. […] After 4 h incubation, the sample absorbance at 570 nm and […] were measured using a Victor 3 plate reader (Perkin Elmer, Waltham, MA) and ratio of drug-treated samples vs. the untreated control was used to determine cell viability. […] Fluorescence labeled secondary antibodies (Invitrogen, Carlsbad, CA) were used for detection. […]
As to `CC1(C)C(N(O)C(=O)Nc2ccc(Cl)cc2)N(c2ccc(Cl)cc2)C(=O)N1CC(=O)N/N=C/C=C/c1ccc([N+](=O)[O-])o1` (stereo not drawn) [EerI, Eeyarestatin I], the IC50 was 3.5 µM. Turning to `O=C(CCCC[C@@H]1SC[C@@H]2NC(=O)N[C@@H]21)N/N=C/C=C/c1ccc([N+](=O)[O-])o1` [CBU-032], the IC50 came out at 25 µM. For `CN(C)c1ccc(/C=C/C=N/NC(=O)CN2C(=O)N(c3ccc(Cl)cc3)C(N(O)C(=O)Nc3ccc(Cl)cc3)C2(C)C)cc1` (stereo not drawn) [CBU-059] the value was > 40 µM.

The record behind these values is article PMC2993181 (PLoS ONE, 2010).
